These cell lines were tested with NC(=O)c1ccc(N(C(N)=O)c2c(F)cccc2F)nc1-c1ccc(F)cc1F [VX-702] + CS(=O)(=O)N1CCN(Cc2cc3nc(-c4cccc5[nH]ncc45)nc(N4CCOCC4)c3s2)CC1 [Pictilisib] (partner 1 µM) (assay: relative viability (nuclei count vs DMSO), 5 days (fraction); higher = more cells survive). Conditions: first compound 0.02 µM.
Method in brief: (§1)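 One day after seeding in 1536-well plates, lung cancer cell lines were dosed by pin tool. Dosing was either single-drug or a fixed anchor-drug dose plus five library-drug doses (not always all listed) in √10 steps. After 5 days, nuclei were stained in one fix-and-stain step and counted on 4× images, and relative viability is the nuclei count of treated wells over that of vehicle wells, given as the median of duplicate plates.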

Cell Line | relative viability
NCI-H1792 | 0.228
HCC-15 | 0.731
LU99A | 0.316
EKVX | 0.408
NCI-H1437 | 0.499
RERF-LC-KJ | 0.562
NCI-H1734 | 0.516
BEN | 0.558
NCI-H460 | 0.361
H3255 | 0.553
NCI-H1793 | 0.311
NCI-H23 | 0.506
NCI-H838 | 0.467
EPLC-272H | 0.321
NCI-H3122 | 0.572
NCI-H1915 | 1.14
NCI-H727 | 0.343

Cell Line | relative viability
NCI-H1975 | 0.27
LK-2 | 0.457
HCC-366 | 0.132
NCI-H2087 | 0.861
LCLC-97TM1 | 0.148
NCI-H2405 | 0.459
NCI-H1993 | 0.871
PC-3 [JPC-3] | 0.806
NCI-H2347 | 0.754
LXF-289 | 0.85
NCI-H358 | 0.352
LC-2-ad | 0.472
201T | 0.698
NCI-H1666 | 0.513
NCI-H322M | 0.543
HARA | 0.361
NCI-H1395 | 0.572

Same assay, conditions: first compound 0.2 µM

Cell Line | relative viability
NCI-H1792 | 0.222
HCC-15 | 0.644
LU99A | 0.297
EKVX | 0.351
NCI-H1437 | 0.428
RERF-LC-KJ | 0.435
NCI-H1734 | 0.388
BEN | 0.526
NCI-H460 | 0.153
H3255 | 0.48
NCI-H1793 | 0.262
NCI-H23 | 0.424
NCI-H838 | 0.408
EPLC-272H | 0.303
NCI-H3122 | 0.59
NCI-H1915 | 0.848
NCI-H727 | 0.302

Cell Line | relative viability
NCI-H1975 | 0.283
HCC-366 | 0.148
NCI-H2087 | 0.729
LCLC-97TM1 | 0.21
NCI-H2405 | 0.41
NCI-H1993 | 0.808
PC-3 [JPC-3] | 0.737
NCI-H2347 | 0.596
LXF-289 | 0.785
NCI-H358 | 0.343
LC-2-ad | 0.45
201T | 0.634
NCI-H1666 | 0.439
NCI-H322M | 0.528
HARA | 0.412
NCI-H1395 | 0.595

Same assay, conditions: first compound 0.6325 µM

Cell Line | relative viability
NCI-H1792 | 0.22
HCC-15 | 0.643
LU99A | 0.292
EKVX | 0.35
NCI-H1437 | 0.446
RERF-LC-KJ | 0.625
NCI-H1734 | 0.388
BEN | 0.491
NCI-H460 | 0.295
H3255 | 0.462
NCI-H1793 | 0.389
NCI-H23 | 0.464
NCI-H838 | 0.517
EPLC-272H | 0.33
NCI-H3122 | 0.578
NCI-H1915 | 0.949
NCI-H727 | 0.382

Cell Line | relative viability
NCI-H1975 | 0.384
LK-2 | 0.385
HCC-366 | 0.154
NCI-H2087 | 0.881
LCLC-97TM1 | 0.121
NCI-H2405 | 0.459
NCI-H1993 | 0.757
PC-3 [JPC-3] | 0.884
NCI-H2347 | 0.703
LXF-289 | 0.818
NCI-H358 | 0.301
LC-2-ad | 0.446
201T | 0.676
NCI-H1666 | 0.454
NCI-H322M | 0.483
HARA | 0.325
NCI-H1395 | 0.607

Same assay, conditions: first compound 2 µM

Cell Line | relative viability
NCI-H1792 | 0.247
HCC-15 | 0.749
LU99A | 0.318
EKVX | 0.358
NCI-H1437 | 0.53
RERF-LC-KJ | 0.601
NCI-H1734 | 0.346
BEN | 0.608
NCI-H460 | 0.257
H3255 | 0.479
NCI-H1793 | 0.252
NCI-H23 | 0.652
NCI-H838 | 0.47
EPLC-272H | 0.353
NCI-H3122 | 0.589
NCI-H1915 | 1.1
NCI-H727 | 0.356

Cell Line | relative viability
NCI-H1975 | 0.316
LK-2 | 0.594
HCC-366 | 0.113
NCI-H2087 | 0.783
LCLC-97TM1 | 0.192
NCI-H2405 | 0.572
NCI-H1993 | 0.834
PC-3 [JPC-3] | 0.388
NCI-H2347 | 0.347
LXF-289 | 0.784
NCI-H358 | 0.323
LC-2-ad | 0.433
201T | 0.668
NCI-H1666 | 0.263
NCI-H322M | 0.521
HARA | 0.332
NCI-H1395 | 0.662

The cell lines below were run with CC(C)(C)c1nc(-c2cccc(NS(=O)(=O)c3c(F)cccc3F)c2F)c(-c2ccnc(N)n2)s1 [Dabrafenib] + O=C(c1cc(Cc2n[nH]c(=O)c3ccccc23)ccc1F)N1CCN(C(=O)C2CC2)CC1 [Olaparib] (partner 8 µM) in the same assay as above. Conditions: first compound 0.003 µM.
Method in brief: as §1

Cell Line | relative viability
HCC-15 | 0.716
LU99A | 0.296
NCI-H1437 | 0.651
RERF-LC-KJ | 0.907
NCI-H460 | 0.493
H3255 | 0.632
NCI-H838 | 0.772
EPLC-272H | 0.784
NCI-H3122 | 0.631
NCI-H1915 | 0.276
NCI-H727 | 0.554
NCI-H1975 | 0.723
LK-2 | 0.737
HCC-366 | 0.381
NCI-H1993 | 1.17
LXF-289 | 1.1
NCI-H358 | 0.647
LC-2-ad | 0.69
201T | 0.87
NCI-H1666 | 0.783

Same assay, conditions: first compound 0.009487 µM

Cell Line | relative viability
NCI-H1792 | 0.522
HCC-15 | 0.673
LU99A | 0.278
EKVX | 0.763
NCI-H1437 | 0.62
RERF-LC-KJ | 1
NCI-H1734 | 0.69
BEN | 1.24
NCI-H460 | 0.398
H3255 | 0.568
NCI-H1793 | 1.06
NCI-H23 | 0.312
NCI-H838 | 0.792
EPLC-272H | 0.931
NCI-H3122 | 0.605
NCI-H1915 | 0.233
NCI-H727 | 0.656

Cell Line | relative viability
NCI-H1975 | 0.758
LK-2 | 0.706
HCC-366 | 0.337
NCI-H2087 | 0.535
LCLC-97TM1 | 0.317
NCI-H2405 | 0.838
NCI-H1993 | 1.1
PC-3 [JPC-3] | 1.24
NCI-H2347 | 0.629
LXF-289 | 1.12
NCI-H358 | 0.697
LC-2-ad | 0.668
201T | 0.836
NCI-H1666 | 0.753
NCI-H322M | 0.8
HARA | 0.971
NCI-H1395 | 0.497

Same assay, conditions: first compound 0.03 µM

Cell Line | relative viability
NCI-H1792 | 0.25
HCC-15 | 0.743
LU99A | 0.257
EKVX | 0.766
NCI-H1437 | 0.643
RERF-LC-KJ | 0.895
NCI-H1734 | 0.504
NCI-H460 | 0.397
H3255 | 0.626
NCI-H23 | 0.3
NCI-H838 | 0.735
EPLC-272H | 0.717
NCI-H3122 | 0.647
NCI-H1915 | 0.214
NCI-H1975 | 0.706
HCC-366 | 0.271
NCI-H2087 | 0.541
LCLC-97TM1 | 0.472
NCI-H2405 | 0.674
NCI-H1993 | 1.09
PC-3 [JPC-3] | 1.18
NCI-H2347 | 0.552
LXF-289 | 1.07
NCI-H358 | 0.546
LC-2-ad | 0.709
201T | 0.762
NCI-H1666 | 0.776
HARA | 0.799
NCI-H1395 | 0.473

Same assay, conditions: first compound 0.09487 µM

Cell Line | relative viability
NCI-H1792 | 0.324
HCC-15 | 0.578
LU99A | 0.236
EKVX | 0.641
NCI-H1437 | 0.592
RERF-LC-KJ | 0.774
NCI-H1734 | 0.465
BEN | 1.02
NCI-H460 | 0.362
H3255 | 0.573
NCI-H1793 | 0.612
NCI-H23 | 0.292
NCI-H838 | 0.68
EPLC-272H | 0.749
NCI-H3122 | 0.508
NCI-H1915 | 0.215
NCI-H727 | 0.612

Cell Line | relative viability
NCI-H1975 | 0.681
LK-2 | 0.498
HCC-366 | 0.329
NCI-H2087 | 0.385
LCLC-97TM1 | 0.262
NCI-H2405 | 0.804
NCI-H1993 | 1.06
PC-3 [JPC-3] | 1.07
NCI-H2347 | 0.553
LXF-289 | 0.892
NCI-H358 | 0.538
LC-2-ad | 0.647
201T | 0.811
NCI-H1666 | 0.746
NCI-H322M | 0.745
HARA | 0.647
NCI-H1395 | 0.456

Same assay, conditions: first compound 0.3 µM

Cell Line | relative viability
NCI-H1792 | 0.417
HCC-15 | 0.63
LU99A | 0.272
EKVX | 0.966
NCI-H1437 | 0.618
RERF-LC-KJ | 0.932
NCI-H1734 | 0.557
BEN | 1.18
NCI-H460 | 0.385
H3255 | 0.595
NCI-H1793 | 1.09
NCI-H23 | 0.329
NCI-H838 | 0.873
EPLC-272H | 0.964
NCI-H3122 | 0.562
NCI-H1915 | 0.268
NCI-H727 | 0.796
NCI-H1975 | 0.718
LK-2 | 0.796
HCC-366 | 0.39
NCI-H2087 | 0.532
LCLC-97TM1 | 0.35
NCI-H2405 | 0.89
NCI-H1993 | 1.31

— the supplement of paper PMC10307832
